Results reported in patent US7795279B2, “Method of inhibiting FLT3 kinase” (Janssen Pharmaceutica NV, priority 2005, dated 2010).
Counter-ions that a name gives are not always drawn.

System: MV4-11 cells
Assay: Inhibition of MV4-11 cell proliferation (CellTiterGlo)
Assay type: cell-based
Conditions: Homo sapiens, 72 hours growth, uncertainty ±20%
Procedure: To assess the cellular potency of compounds of the present invention, FLT3 specific growth inhibition was measured in the leukemic cell line MV4-11 (ATCC Number: CRL-9591). MV4-11 cells are derived from a patient with childhood acute myelomonocytic leukemia with an 11q23 translocation resulting in a MLL gene rearrangement and containing an FLT3-ITD mutation (AML subtype M4)(1,2). MV4-11 cells cannot grow and survive without active FLT3ITD.
To measure proliferation inhibition by compounds of the present invention, the luciferase based CellTiterGlo reagent (Promega), which quantifies total cell number based on total cellular ATP concentration, was used. Cells are plated at 10,000 cells per well in 100 ul of in RPMI media containing penn/strep, 10% FBS and 1 ng/ml GM-CSF or 1 ng/ml IL-3 for MV4-11 and Baf3 cells respectively.
Compound dilutions or 0.1% DMSO (vehicle control) are added to cells and the cells are allowed to grow for 72 hours at standard cell growth conditions (37° C., 5% CO2). For activity measurements in MV4-11 cells grown in 50% plasma, cells were plated at 10,000 cells per well in a 1:1 mixture of growth media and human plasma (final volume of 100 μL). To measure total cell growth an equal volume of CellTiterGlo reagent was added to each well, according to the manufacturer's instructions, and luminescence was quantified. Total cell growth was quantified as the difference in luminescent counts (relative light units, RLU) of cell number at Day 0 compared to total cell number at Day 3 (72 hours of growth and/or compound treatment). One hundred percent inhibition of growth is defined as an RLU equivalent to the Day 0 reading. Zero percent inhibition was defined as the RLU signal for the DMSO vehicle control at Day 3 of growth.
Data points are an average of triplicate samples. […] Inhibition and IC50 data analysis was done with GraphPad Prism using a non-linear regression fit with a multiparamater, sigmoidal dose-response (variable slope) equation.

IC50 | Structure (SMILES)
192 nM | N#Cc1c[nH]c(C(=O)Nc2ccc(C3CCS(=O)(=O)CC3)cc2C2=CCCCC2)n1 [Example 35, 4-Cyano-1H-imidazole-2-carboxylic acid [2-cyclohex-1-enyl-4-(1,1-dioxo-hexahydro-1λ^6-thiopyran-4-yl)-phenyl]-amide]
131 nM | CN1CCN(c2ccc(NC(=O)c3ccc(C#N)o3)c(C3=CCCCC3)c2)CC1 [Example 11, 5-Cyano-furan-2-carboxylic acid [2-cyclohex-1-enyl-4-(4-methyl-piperazin-1-yl)-phenyl]-amide]
115 nM | Cn1ccnc1CN1CCC(c2ccc(NC(=O)c3nc(C#N)c[nH]3)c(C3=CCCC3)c2)CC1 [Example 23, 4-Cyano-1H-imidazole-2-carboxylic acid {2-cyclopent-1-enyl-4-[1-(1-methyl-1 H-imidazol-2-ylmethyl)-piperidin-4-yl]-phenyl}-amide trifluoroacetic acid salt]
666 nM | Cc1cscc1-c1cc(N2CCN(C)CC2)ccc1NC(=O)c1ccc(C#N)o1 [Example 5, 5-Cyano-furan-2-carboxylic acid [4-(4-methyl-piperazin-1-yl)-2-(4-methyl-thiophen-3-yl)-phenyl]-amide]
> 10000 nM | CN1CCN(c2ccc(NC(=O)c3ccc(C#N)o3)c(C3=CCOCC3)c2)CC1 [Example 12]
4.72 nM | C[C@@H]1CC(c2ccc(NC(=O)c3ncc(C#N)[nH]3)c(C3=CCCCC3)c2)C[C@H](C)N1 (stereo partly drawn) [Example 51a, 5-Cyano-1H-imidazole-2-carboxylic acid [2-cyclohex-1-enyl-4-(cis-2,6-dimethyl-piperidin-4-yl)-phenyl]-amide bis trifluoroacetic acid salt]
1000 nM | Cc1ccccc1-c1cc(N2CCN(C)CC2)ccc1NC(=O)c1ccc(C#N)o1 [Example 9, 5-Cyano-furan-2-carboxylic acid [2′-methyl-5-(4-methyl-piperazin-1-yl)-biphenyl-2-yl]-amide]

Structure (SMILES) | IC50
CS(=O)(=O)CCN1CCC(c2ccc(NC(=O)c3nc(C#N)c[nH]3)c(C3=CCCCC3)c2)CC1 [Example 40, 4-Cyano-1H-imidazole-2-carboxylic acid {2-cyclohex-1-enyl-4-[1-(2-methanesulfonyl-ethyl)-piperidin-4-yl]-phenyl}-amide] | 116 nM
N#Cc1c[nH]c(C(=O)Nc2ccc(C3CCN(CCN4CCOCC4)CC3)cc2C2=CCCCC2)n1 [Example 34, 4-Cyano-1H-imidazole-2-carboxylic acid {2-cyclohex-1-enyl-4-[1-(2-morpholin-4-yl-ethyl)-piperidin-4-yl]-phenyl}-amide di-trifluoroacetic acid salt] | 8 nM
N#Cc1c[nH]c(C(=O)Nc2ccc(C3CCNCC3)cc2C2=CCS(=O)(=O)CC2)n1 [Example 36, 4-Cyano-1H-imidazole-2-carboxylic acid [2-(1,1-dioxo-1,2,3,6-tetrahydro-1λ^6-thiopyran-4-yl)-4-piperidin-4-yl-phenyl]-amide trifluoroacetic acid salt] | 192 nM

Target: T1, isolated kinase domain of the human FLT3 receptor (a.a. 571-993) (Homo sapiens, UniProt P36888)
T1 construct: human FLT3 receptor (a.a. 571-993)
T1 sequence (P36888 571-993): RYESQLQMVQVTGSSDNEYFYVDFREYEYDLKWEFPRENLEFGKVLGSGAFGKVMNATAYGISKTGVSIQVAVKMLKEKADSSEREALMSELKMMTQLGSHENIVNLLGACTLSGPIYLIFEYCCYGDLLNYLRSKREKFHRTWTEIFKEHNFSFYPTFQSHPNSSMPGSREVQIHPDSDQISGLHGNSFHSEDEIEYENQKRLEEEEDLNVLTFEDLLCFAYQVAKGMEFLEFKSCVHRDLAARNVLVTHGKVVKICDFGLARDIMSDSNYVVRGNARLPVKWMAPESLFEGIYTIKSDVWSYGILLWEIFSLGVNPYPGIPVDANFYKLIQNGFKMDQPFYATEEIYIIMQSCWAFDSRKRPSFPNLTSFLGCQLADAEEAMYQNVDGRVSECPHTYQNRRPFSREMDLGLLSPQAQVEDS
Assay: FLT3 fluorescence polarization kinase assay
Assay type: biochemical
Conditions: 10 nM FLT3 571-993, 150 uM ATP; uncertainty ±10%; read-out: Flt-3 Kinase IC50
Source text: The FLT3 FP assay utilizes the fluorescein-labeled phosphopeptide and the anti-phosphotyrosine antibody included in the Panvera Phospho-Tyrosine Kinase Kit (Green) supplied by Invitrogen. When FLT3 phosphorylates polyGlu4Tyr, the fluorescein-labeled phosphopeptide is displaced from the anti-phosphotyrosine antibody by the phosphorylated poly Glu4Tyr, thus decreasing the FP value. […] The kinase reaction is stopped with the addition of EDTA. The fluorescein-labeled phosphopeptide and the anti-phosphotyrosine antibody are added and incubated for 30 minutes at room temperature.
Data points are an average of triplicate samples. Inhibition and IC50 data analysis was done with GraphPad Prism using a non-linear regression fit with a multiparamater, sigmoidal dose-response (variable slope) equation.

IC50 | Structure (SMILES)
34 nM | CN(C)CC(=O)N1CCC(c2ccc(NC(=O)c3nc(C#N)c[nH]3)c(C3=CCC(C)(C)CC3)n2)CC1 [Example 55, 4-Cyano-1H-imidazole-2-carboxylic acid [1′-(2-dimethylamino-acetyl)-6-(4,4-dimethyl-cyclohex-1-enyl)-1′,2′,3′,4′,5′,6′-hexahydro-[2,4′]bipyridinyl-5-yl]-amide trifluoroacetic acid salt]
10 nM | Cc1cscc1-c1cc(N2CCN(C)CC2)ccc1NC(=O)c1ccc(C#N)o1 [Example 5, 5-Cyano-furan-2-carboxylic acid [4-(4-methyl-piperazin-1-yl)-2-(4-methyl-thiophen-3-yl)-phenyl]-amide]
29 nM | N#Cc1c[nH]c(C(=O)Nc2ccc(C3CCNCC3)cc2C2=CCCCC2)c1 [Example 13, 4-Cyano-1H-pyrrole-2-carboxylic acid (2-cyclohex-1-enyl-4-piperidin-4-yl-phenyl)-amide trifluoroacetic acid salt]
